ChEMBL document CHEMBL5126546, “Advancements in the development of multi-target directed ligands for the treatment of Alzheimer's disease” (Bioorg Med Chem, 2022)

Tests used:
[1] = target: T1, Amyloid-beta precursor protein (Homo sapiens, UniProt P05067); assay: Inhibition of amyloid beta (1 to 42) (unknown origin) self aggregation incubated for 24 hrs by Thioflavin T based fluorometric assay
Cholinesterase [2] = target: T2, Cholinesterase (Homo sapiens, UniProt P06276); assay: Inhibition of human BuChE using butyrylthiocholine iodide as substrate at 10 uM preincubated for 6 mins followed by substrate addition and measured for 12 mins by DTNB reagent based Ellman's method; details: time 18.0 min
Acetylcholinesterase [3] = target: T3, Acetylcholinesterase (Homo sapiens, UniProt P22303); assay: Inhibition of human AChE using acetylthiocholine iodide as substrate preincubated for 6 mins followed by substrate addition and measured for 12 mins by DTNB reagent based Ellman's method
Beta-secretase 1 [4] = target: T4, Beta-secretase 1 (Homo sapiens, UniProt P56817); assay: Inhibition of human BACE-1 using Rh-EVNLDAEFK-quencher as peptide substrate incubated for 1 hr in dark by FRET assay
Acetylcholinesterase [5] = target: T3, Acetylcholinesterase; assay: Inhibition of recombinant human AChE using Amplex red, acetylthiocholine as substrate preincubated for 15 mins followed by substrate addition and measured after 30 mins by microplate fluorescence reader analysis
Acetylcholinesterase [6] = target: T5, Acetylcholinesterase (Electrophorus electricus, UniProt O42275); assay: Inhibition of electric eel AChE using acetylthiocholine iodide as substrate by spectrophotometric based Ellman's method
Cholinesterase [7] = target: T6, Cholinesterase (Equus caballus, UniProt P81908); assay: Inhibition of horse serum BuChE using butyrylthiocholine chloride as substrate by spectrophotometric based Ellman's method
[8] = target: Fatty-acid amide hydrolase 1 (Homo sapiens, UniProt O00519); assay: Inhibition of FAAH (unknown origin) using 7-amino-4-methylcoumarin-arachidonamide as substrate preincubated for 5 mins followed by substrate addition and measured after 30 mins by fluorescence based assay
Acetylcholinesterase [9] = target: T5, Acetylcholinesterase; assay: Inhibition of Electrophorus electricus AchE using acetylthiocholine iodide as substrate preincubated for 15 mins followed by substrate addition and measured for 6 mins by DTNB reagent based Ellman's method
Acetylcholinesterase [10] = target: T3, Acetylcholinesterase; assay: Inhibition of AChE (unknown origin) using acetylthiocholine iodide as substrate preincubated for 45 mins followed by substrate addition by DTNB reagent based Ellman's method
[11] = Antioxidant activity assessed as DPPH radical scavenging activity incubated for 30 mins by DPPH assay; type: functional
[12] = Antioxidant activity assessed as NO radical scavenging activity incubated for 150 mins in presence of sodium nitroprusside by griess reagent based assay; type: functional
[13] = target: Glutamate [NMDA] receptor; assay: Inhibition of NMDA receptor (unknown origin); type: protein-complex assay, Homo sapiens
[14] = target: Glutamate receptor ionotropic AMPA (Homo sapiens, UniProt P42261+P42262+P42263+P48058); assay: Inhibition of AMPA receptor (unknown origin); type: protein-complex assay
Cholinesterase [15] = target: T6, Cholinesterase; assay: Inhibition of equine serum BuChE using butyrylthiocholine iodide as substrate preincubated for 5 mins followed by substrate addition and measured for 2 mins by spectrophotometric based Ellman's method
Acetylcholinesterase [16] = target: T5, Acetylcholinesterase; assay: Inhibition of Electrophorus electricus AChE using acetylthiocholine iodide as substrate preincubated for 5 mins followed by substrate addition and measured for 2 mins by spectrophotometric based Ellman's method
Beta-secretase 1 [17] = target: T4, Beta-secretase 1; assay: Inhibition of recombinant human BACE-1 using MCA-SEVNLDAEFR-Ednp-KRR-NH2.3TFA as substrate incubated for 2 hrs by Varioskan-flash multimode plate reader analysis
Rattus norvegicus [18] = assay: Antiinflammatory activity in carrageenan induced Sprague-Dawley rat acute inflammation model assessed as inhibition of paw edema at 50 mg/kg, po for 1 hr followed by carrageenan injection snd measured after 3 hrs relative to control; type: functional; parameters: scale not given: the % may be the effect or the level left; details: time 4 hrs
Rattus norvegicus [19] = assay: Antiinflammatory activity in formalin induced Sprague-Dawley rat chronic inflammation model assessed as inhibition of paw edema at 50 mg/kg, po for 1 hr followed by formalin injection for 5 days relative to control; type: functional; parameters: scale not given: the % may be the effect or the level left; details: time 5 day
Acetylcholinesterase [20] = target: T5, Acetylcholinesterase; assay: Inhibition of Electrophorus electricus AchE using acetylthiocholine iodide as substrate preincubated for 5 mins followed by substrate addition and measured after 5 mins by Ellman's method
Cholinesterase [21] = target: T6, Cholinesterase; assay: Inhibition of equine serum BuChE using butyrylthiocholine iodide as substrate preincubated for 5 mins followed by substrate addition and measured after 5 mins by Ellman's method
Acetylcholinesterase [22] = target: T5, Acetylcholinesterase; assay: Inhibition of Electrophorus electricus AChE using acetylthiocholine iodide as substrate preincubated for 5 mins followed by substrate addition and measured for 5 mins by spectrophotometric based Ellman's method
Cholinesterase [23] = target: T2, Cholinesterase; assay: Inhibition of BuChE (unknown origin) by spectrophotometric based Ellman's method
Acetylcholinesterase [24] = target: T3, Acetylcholinesterase; assay: Inhibition of AChE (unknown origin) by spectrophotometric based Ellman's method
[25] = target: T1, Amyloid-beta precursor protein; assay: Inhibition of amyloid beta (1 to 42) (unknown origin) self aggregation at 40 uM and measured after 24 hrs by Thioflavin T based fluorometric assay
[26] = Selectivity index, ratio of IC50 for inhibition of equine serum BuChE to IC50 for inhibition of electric eel AChE
Acetylcholinesterase [27] = target: T5, Acetylcholinesterase; assay: Inhibition of Electrophorus electricus AchE incubated for 15 mins by Ellman's method
[28] = Antioxidant activity of compound assessed as trolox equivalent of ORAC radical scavenging activity by ORAC-FL assay; type: functional
Cholinesterase [29] = target: T2, Cholinesterase; assay: Inhibition of BuChE (unknown origin) incubated for 15 mins by Ellman's method
[30] = target: Amine oxidase [flavin-containing] A (Homo sapiens, UniProt P21397); assay: Inhibition of recombinant human MAO-A assessed as amount of 4-hydroxyquinoline using kynuramine as a substrate incubated for 30 mins by fluorescence spectrophotometry
[31] = target: Amine oxidase [flavin-containing] B (Homo sapiens, UniProt P27338); assay: Inhibition of recombinant human MAO-B assessed as amount of 4-hydroxyquinoline using kynuramine as a substrate incubated for 30 mins by fluorescence spectrophotometry
Amine oxidase [flavin-containing] B, sequence (P27338 whole entry): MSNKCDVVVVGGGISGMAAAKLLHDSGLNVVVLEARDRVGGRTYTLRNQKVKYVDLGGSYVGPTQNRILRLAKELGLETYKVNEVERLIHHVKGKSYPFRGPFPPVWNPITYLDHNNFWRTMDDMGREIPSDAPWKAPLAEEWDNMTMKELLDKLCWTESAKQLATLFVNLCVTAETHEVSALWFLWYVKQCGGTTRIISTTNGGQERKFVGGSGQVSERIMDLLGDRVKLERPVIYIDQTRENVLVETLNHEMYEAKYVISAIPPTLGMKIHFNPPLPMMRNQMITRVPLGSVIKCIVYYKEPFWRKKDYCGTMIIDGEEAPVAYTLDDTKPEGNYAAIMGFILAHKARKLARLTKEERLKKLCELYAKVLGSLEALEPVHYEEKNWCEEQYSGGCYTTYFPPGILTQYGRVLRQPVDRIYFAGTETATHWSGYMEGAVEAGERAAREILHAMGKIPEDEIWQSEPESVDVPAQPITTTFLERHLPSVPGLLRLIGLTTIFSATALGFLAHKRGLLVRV

T3 sequence (P22303 whole entry): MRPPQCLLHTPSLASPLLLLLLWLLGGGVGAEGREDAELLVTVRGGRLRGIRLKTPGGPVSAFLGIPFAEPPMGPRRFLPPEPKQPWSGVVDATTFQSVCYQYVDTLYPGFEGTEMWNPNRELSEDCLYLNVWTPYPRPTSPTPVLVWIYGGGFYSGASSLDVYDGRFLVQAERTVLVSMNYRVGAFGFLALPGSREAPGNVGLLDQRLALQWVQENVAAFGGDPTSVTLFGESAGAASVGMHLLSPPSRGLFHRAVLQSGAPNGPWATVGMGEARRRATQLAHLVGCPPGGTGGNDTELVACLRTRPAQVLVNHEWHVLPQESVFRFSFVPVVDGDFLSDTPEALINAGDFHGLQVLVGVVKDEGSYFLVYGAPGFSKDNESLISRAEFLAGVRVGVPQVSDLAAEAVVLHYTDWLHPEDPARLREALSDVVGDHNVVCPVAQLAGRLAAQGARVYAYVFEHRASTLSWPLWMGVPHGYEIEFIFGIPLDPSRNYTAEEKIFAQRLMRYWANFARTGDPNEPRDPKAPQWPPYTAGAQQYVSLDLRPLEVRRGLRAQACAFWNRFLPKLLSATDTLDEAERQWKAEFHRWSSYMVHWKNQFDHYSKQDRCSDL
T6 sequence (P81908 whole entry): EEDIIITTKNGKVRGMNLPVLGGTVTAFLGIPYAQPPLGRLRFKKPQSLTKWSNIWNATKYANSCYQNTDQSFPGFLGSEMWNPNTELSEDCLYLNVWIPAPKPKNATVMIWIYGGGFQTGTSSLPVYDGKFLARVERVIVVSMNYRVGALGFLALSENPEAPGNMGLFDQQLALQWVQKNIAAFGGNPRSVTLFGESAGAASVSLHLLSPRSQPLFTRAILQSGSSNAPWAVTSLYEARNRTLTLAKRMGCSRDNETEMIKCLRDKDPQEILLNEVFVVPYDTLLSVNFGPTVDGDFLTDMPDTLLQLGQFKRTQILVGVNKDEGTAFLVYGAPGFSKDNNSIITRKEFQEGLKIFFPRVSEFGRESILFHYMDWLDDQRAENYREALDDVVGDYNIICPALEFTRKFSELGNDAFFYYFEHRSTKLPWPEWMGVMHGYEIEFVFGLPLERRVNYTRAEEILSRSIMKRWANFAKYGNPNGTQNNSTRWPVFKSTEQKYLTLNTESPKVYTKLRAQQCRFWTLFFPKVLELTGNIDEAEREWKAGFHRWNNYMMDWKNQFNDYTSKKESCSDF
T5 sequence (O42275 whole entry): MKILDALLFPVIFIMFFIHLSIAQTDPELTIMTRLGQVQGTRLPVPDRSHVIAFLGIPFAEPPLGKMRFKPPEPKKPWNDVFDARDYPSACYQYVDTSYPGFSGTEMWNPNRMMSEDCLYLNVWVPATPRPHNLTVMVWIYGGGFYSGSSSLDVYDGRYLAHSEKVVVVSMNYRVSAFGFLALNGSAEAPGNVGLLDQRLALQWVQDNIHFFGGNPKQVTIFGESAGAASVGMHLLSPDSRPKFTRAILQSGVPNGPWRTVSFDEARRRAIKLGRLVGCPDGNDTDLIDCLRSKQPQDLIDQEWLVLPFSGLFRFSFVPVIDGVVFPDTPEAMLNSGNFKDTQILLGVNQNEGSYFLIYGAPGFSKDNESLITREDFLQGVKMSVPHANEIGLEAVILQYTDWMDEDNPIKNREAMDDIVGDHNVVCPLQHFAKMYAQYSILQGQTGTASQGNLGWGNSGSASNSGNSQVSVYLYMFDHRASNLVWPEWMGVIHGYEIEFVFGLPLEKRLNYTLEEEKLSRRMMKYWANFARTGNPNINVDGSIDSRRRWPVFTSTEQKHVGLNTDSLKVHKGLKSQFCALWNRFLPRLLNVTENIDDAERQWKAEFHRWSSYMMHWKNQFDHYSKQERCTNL
T2 sequence (P06276 whole entry): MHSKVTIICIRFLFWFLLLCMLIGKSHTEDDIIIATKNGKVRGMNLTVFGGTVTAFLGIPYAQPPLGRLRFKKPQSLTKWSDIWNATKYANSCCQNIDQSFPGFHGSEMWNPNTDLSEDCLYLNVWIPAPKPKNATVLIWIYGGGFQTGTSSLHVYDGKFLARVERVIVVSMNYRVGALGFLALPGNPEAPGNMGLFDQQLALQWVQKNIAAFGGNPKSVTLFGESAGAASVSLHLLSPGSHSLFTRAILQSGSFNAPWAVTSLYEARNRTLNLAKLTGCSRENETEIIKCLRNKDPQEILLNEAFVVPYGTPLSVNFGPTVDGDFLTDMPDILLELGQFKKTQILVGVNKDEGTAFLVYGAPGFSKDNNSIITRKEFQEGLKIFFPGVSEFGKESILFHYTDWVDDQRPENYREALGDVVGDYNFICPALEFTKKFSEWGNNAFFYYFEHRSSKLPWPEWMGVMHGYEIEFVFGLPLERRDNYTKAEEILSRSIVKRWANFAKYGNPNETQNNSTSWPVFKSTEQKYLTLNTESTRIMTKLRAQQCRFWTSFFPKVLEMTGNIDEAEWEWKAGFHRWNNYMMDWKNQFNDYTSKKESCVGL
T1 sequence (P05067 whole entry): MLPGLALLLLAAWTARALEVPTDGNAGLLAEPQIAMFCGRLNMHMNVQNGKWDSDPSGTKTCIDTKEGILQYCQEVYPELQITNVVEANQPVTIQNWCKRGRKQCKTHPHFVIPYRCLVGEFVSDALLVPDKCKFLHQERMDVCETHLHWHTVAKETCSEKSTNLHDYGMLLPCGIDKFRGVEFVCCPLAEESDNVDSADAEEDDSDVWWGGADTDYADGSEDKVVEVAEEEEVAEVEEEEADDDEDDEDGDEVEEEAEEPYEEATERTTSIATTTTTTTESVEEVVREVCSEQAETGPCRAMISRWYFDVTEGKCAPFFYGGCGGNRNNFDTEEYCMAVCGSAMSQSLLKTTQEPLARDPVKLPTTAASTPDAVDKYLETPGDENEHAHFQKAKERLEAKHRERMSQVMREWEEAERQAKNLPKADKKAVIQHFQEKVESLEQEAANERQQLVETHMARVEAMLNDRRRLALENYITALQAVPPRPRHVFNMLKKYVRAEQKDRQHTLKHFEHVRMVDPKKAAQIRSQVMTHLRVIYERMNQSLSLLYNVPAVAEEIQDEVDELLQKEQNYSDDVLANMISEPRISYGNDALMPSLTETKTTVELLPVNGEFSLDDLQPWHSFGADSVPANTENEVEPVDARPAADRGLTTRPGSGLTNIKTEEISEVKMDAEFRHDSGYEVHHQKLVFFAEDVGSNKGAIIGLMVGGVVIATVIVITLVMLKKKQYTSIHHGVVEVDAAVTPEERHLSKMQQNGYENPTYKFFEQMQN
T4 sequence (P56817 whole entry): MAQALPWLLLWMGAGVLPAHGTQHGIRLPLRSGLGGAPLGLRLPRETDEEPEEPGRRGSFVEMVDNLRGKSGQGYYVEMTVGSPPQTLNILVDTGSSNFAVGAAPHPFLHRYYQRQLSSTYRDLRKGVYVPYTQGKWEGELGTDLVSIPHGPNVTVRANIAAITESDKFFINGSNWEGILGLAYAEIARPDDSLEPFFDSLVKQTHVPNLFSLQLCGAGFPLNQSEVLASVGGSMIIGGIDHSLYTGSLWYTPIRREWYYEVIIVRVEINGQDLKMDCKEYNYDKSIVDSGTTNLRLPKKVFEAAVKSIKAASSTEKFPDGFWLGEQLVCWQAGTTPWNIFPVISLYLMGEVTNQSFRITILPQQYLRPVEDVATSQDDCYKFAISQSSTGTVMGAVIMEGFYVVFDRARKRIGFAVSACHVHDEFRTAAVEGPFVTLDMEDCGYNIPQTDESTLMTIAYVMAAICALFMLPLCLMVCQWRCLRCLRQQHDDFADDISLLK
Amine oxidase [flavin-containing] A, sequence (P21397 whole entry): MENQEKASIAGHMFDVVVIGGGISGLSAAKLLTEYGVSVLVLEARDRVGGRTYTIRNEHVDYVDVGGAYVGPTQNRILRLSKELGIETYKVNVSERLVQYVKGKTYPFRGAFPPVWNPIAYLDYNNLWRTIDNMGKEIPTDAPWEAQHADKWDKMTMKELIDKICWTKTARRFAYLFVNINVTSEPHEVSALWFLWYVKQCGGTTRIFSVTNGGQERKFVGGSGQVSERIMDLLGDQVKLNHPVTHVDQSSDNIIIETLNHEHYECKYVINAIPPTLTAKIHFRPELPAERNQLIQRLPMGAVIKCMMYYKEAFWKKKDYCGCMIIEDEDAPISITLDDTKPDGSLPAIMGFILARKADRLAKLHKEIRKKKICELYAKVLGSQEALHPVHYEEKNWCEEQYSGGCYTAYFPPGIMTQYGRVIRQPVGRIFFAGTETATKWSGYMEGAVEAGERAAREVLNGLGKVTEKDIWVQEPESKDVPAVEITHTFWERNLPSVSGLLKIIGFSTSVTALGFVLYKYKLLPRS

O=C(CCN1CCN(Cc2ccccc2)CC1)Nc1ccc2nc3n(c(=O)c2c1)CCC3
IC50 [1]: 9.26 µM | inhibition (Cholinesterase [2]): 45.3% | IC50 (Acetylcholinesterase [3]): 3.29 µM | IC50 (Beta-secretase 1 [4]): 0.129 µM

C#CCOc1cccc(-c2cc(-c3ccc(OCCN4CCOCC4)cc3)nc(C)n2)c1
IC50 (Acetylcholinesterase [5]): 0.00954 µM

O=C(N/N=C/Nc1c2c(nc3ccccc13)CCCC2)C12CC3CC(CC(C3)C1)C2
IC50 (Acetylcholinesterase [6]): 6.77 µM | IC50 (Cholinesterase [7]): 0.615 µM

CCCCCCCNC(=O)Oc1cccc(CN(C)CCCCCOc2ccc3[nH]c(=O)ccc3c2)c1
IC50 [8]: 0.83 µM | IC50 (Acetylcholinesterase [9]): 0.39 µM

CC1(C)CCCC2(C)OC(=O)C=C12 (racemic) [DIHYDROACTINIDIOLIDE]
IC50 (Acetylcholinesterase [10]): 0.03 µM | IC50 [11]: 0.05 µM | IC50 [12]: 50 µM

NCCCCCCNC1(c2ccccc2)CCCCC1
IC50 [13]: 0.24 µM | IC50 [14]: 1.7 µM

c1ccc(C[n+]2ccc(-c3nc4ccccc4s3)cc2)cc1
IC50 (Cholinesterase [15]): 0.182 µM | IC50 (Acetylcholinesterase [16]): 0.014 µM

Cc1cc2nc(-c3cnc(N)s3)c(-c3cnc(N)s3)nc2cc1C
IC50 (Beta-secretase 1 [17]): 3 µM | Activity (Rattus norvegicus [18]): 69% | Activity (Rattus norvegicus [19]): 55%

CCCN1CCN(c2ncc(CCN(C)CCCc3ccccc3)s2)CC1
IC50 (Acetylcholinesterase [20]): 14 µM | IC50 (Cholinesterase [21]): 14.6 µM

O=c1c2ccc(OCCN3CCCC3)cc2oc2cc(OCCN3CCCC3)cc(O)c12
IC50 (Acetylcholinesterase [22]): 0.12 µM

O=C(OC[C@H]1O[C@@H](OC(=O)c2cc(O)c(O)c(O)c2)[C@H](OC(=O)c2cc(O)c(O)c(O)c2)[C@@H](OC(=O)c2cc(O)c(O)c(O)c2)[C@@H]1O)c1cc(O)c(O)c(O)c1
IC50 (Cholinesterase [23]): 18.3 µM | IC50 (Acetylcholinesterase [24]): 11.9 µM

COc1cc(-c2nc3ccccc3s2)ccc1OCC(=O)NCCCNc1c2c(nc3ccccc13)CCCC2
inhibition [25]: 33.7%

Cc1nc(C)c(C(=O)OCCCOC(=O)c2ccccn2)nc1C
Ratio IC50 [26]: 1.32e+07

CCN(CCCCOc1ccc(/C=C/C(=O)N2CCc3ccccc3C2)cc1OC)Cc1ccccc1
IC50 (Acetylcholinesterase [27]): 12.1 µM | Activity [28]: 0.53 equiv | IC50 (Cholinesterase [29]): 8.9 µM | IC50 [30]: 6.3 µM | IC50 [31]: 8.6 µM
